Reference: article PMC11982978, “Cancer hotspot mutations rewire ERK2 specificity by selective exclusion of docking interactions” (The Journal of Biological Chemistry, 2025)

Assays:
ERK2 D319N = assay: Y2H D-site library screen, ERK2 D319N; type: cell-based, rat; design: key to ES, +His / ES, -His: ES = slope of ln(Ft/F0) vs number of yeast population doublings
Description: (§1) To examine how cancer-associated CD site mutations affect the scope of ERK2 docking interactions, we adopted a Y2H strategy that we previously applied to define the D-site interactome of WT ERK2 ([15]). This system reports on interactions between ERK2 and a fragment of its substrate ELK1 that harbors a docking site essential for binding (Fig. 1C). The system thus evaluates the binding of potential sequences by substituting them for the native ELK1 docking site. We transformed Y2H strains with a bait plasmid expressing the Gal4 DNA-binding domain (DBD) fused to WT or CD mutant forms of rat ERK2 (R133K, D319N or E320K, equivalent respectively to human R135K, D321N and E322K), along with a prey plasmid expressing Gal4 activation domain (AD) fused to the ELK1 fragment harboring various docking site sequences. We then assayed these strains for growth on solid media under non-selective (+His) and selective conditions (−His) to detect interactions (Fig. 1D).
(§2) We previously used the Y2H system to screen WT ERK2 against a pooled library of 11,756 ELK1 variants incorporating potential docking sites from the human proteome ([15]). To identify interacting sequences either gained or lost upon ERK2 CD site mutation, we screened the same library against ERK2^D319N and ERK2^E320K. Yeast expressing ERK2 mutant bait plasmids were transformed with the ELK1 library pool and subjected to competitive growth under selective (−His) and non-selective conditions (+His) in parallel. Cultures were sampled periodically over ∼7 population doublings. The DNA sequence encoding the variable docking site region was PCR amplified and analyzed by next-generation sequencing (Fig. 2A, Dataset S1). The change in sequence abundance over time was fitted to an exponential function to assign an enrichment score (ES) to each docking site, where a higher ES indicates a greater increase in sequence abundance as the population grows. A significant enrichment of docking site sequences was observed only under selective conditions (Figs. 2B, S1). For each mutant, we observed generally good reproducibility across three independently conducted screens albeit with some sequences enriched in only a single replicate (Fig. S2, A and B). Average ES scores for the E320K and D319N mutant screens were better correlated with each other (R = 0.83) than were average ES scores for either mutant compared to WT ERK2 (R = 0.67 for WT versus D319N, R = 0.63 for WT versus E320K) (Fig. S2C).
(§3) To compare sequences selected by CD mutants with those selected by WT ERK2, we defined those sequences with an ES equal to or higher than three standard deviations from the mean (Z > 3) as hits. Using this cutoff, we obtained 121, 127, and 153 hits sequences from the WT, D319N, and E320K screens, respectively (Fig. 2C, Dataset S2).
(§4) Yeast harboring pGBT9-ERK2^E320K or pGBT9-ERK2^D319N were transformed with the pGADGH-ELK1 D-site library plasmid pool. Transformants (10–40 colonies per library component) were suspended in SD-Leu-Trp media, diluted to an OD600 of 0.1, and cultured in a shaking incubator at 30 °C to an OD600 of 1.0. The resulting culture was used to initiate a competitive selection screen. Cell growth, sample collection and data analysis were performed exactly as described previously for WT ERK2 ([15]). The frequency (F) of each D-site sequence at a given time point (t) was calculated by dividing the number of reads by the total read count for all sequences. For each sequence, a plot of ln(Ft/F0) as a function of the number of yeast population doublings was fit to a line, and the enrichment score (ES) for that sequence was defined as the slope of this line. Illumina sequencing reads, calculated ES, and Z scores for each screen are provided in Dataset S1.

ERK2 E320K = assay: Y2H D-site library screen, ERK2 E320K; type: cell-based, rat; design: key to ES, +His / ES, -His: ES = slope of ln(Ft/F0) vs number of yeast population doublings
Description: as §1, §2, §3, §4

WT ERK2 [1] = assay: Y2H D-site library screen, WT ERK2; type: cell-based, rat; design: key: ES = slope of ln(Ft/F0) vs number of yeast population doublings; conditions: mutant ES is the combined average ES from the D319N and E320K screens
Description: as §1, §2, §3, §4

WT ERK2 [2] = conditions: selective conditions (-His); hits Z > 3; average of three screens; cited from earlier work
Description: Supplement mmc2.xlsx, sheet "WT Hits" | column: Z-score

[3] = Average of 3 Replicate Screens, non-selective
[4] = Average of 3 Replicate Screens, selective
[5] = Average of 3 Replicate Experiments, non-selective
[6] = Average of 3 Replicate Experiments, selective

RQIRASKGIVVLEE [KANSL1L, D-site 14-mer in ELK1 Y2H prey]
ES, +His (ERK2 D319N; [3]): -0.009508 | Z-Score, +His (ERK2 D319N; [3]): -0.257 | ES, -His (ERK2 D319N; [4]): -0.1275 | Z-Score, -His (ERK2 D319N; [4]): -0.06943 | ES, +His (ERK2 D319N; Experiment 1, non-selective): -0.002763 | ES, -His (ERK2 D319N; Experiment 1, selective): -0.1582 | ES, +His (ERK2 D319N; Experiment 2, non-selective): -0.0144 | ES, -His (ERK2 D319N; Experiment 2, selective): -0.1186 | ES, +His (ERK2 D319N; Experiment 3, non-selective): -0.01136 | ES, -His (ERK2 D319N; Experiment 3, selective): -0.1057 | ES, +His (ERK2 E320K; [5]): -0.008476 | Z-Score, +His (ERK2 E320K; [5]): -0.2637 | ES, -His (ERK2 E320K; [6]): -0.1355 | Z-Score, -His (ERK2 E320K; [6]): -0.3259 | ES, +His (ERK2 E320K; Experiment 1, non-selective): 0.001097 | ES, -His (ERK2 E320K; Experiment 1, selective): -0.1358 | ES, +His (ERK2 E320K; Experiment 2, non-selective): -0.005884 | ES, -His (ERK2 E320K; Experiment 2, selective): -0.07688 | ES, +His (ERK2 E320K; Experiment 3, non-selective): -0.02064 | ES, -His (ERK2 E320K; Experiment 3, selective): -0.1937

RRMRRAGQALKLPS [HAS3, D-site 14-mer in ELK1 Y2H prey]
WT ES - mutant ES (WT ERK2 [1]): 0.310 | Z-score (ES) of hit sequences, WT ERK2 Y2H screen (WT ERK2 [2]): 7.82

RSVRKRSPWLQLPG [FCRLB, D-site 14-mer in ELK1 Y2H prey]
Z-score (ES) of hit sequences, WT ERK2 Y2H screen (WT ERK2 [2]): 3.88

SGDPRKPRQLTVGD [ZMYND15, D-site 14-mer in ELK1 Y2H prey]
Z-score (ES) of hit sequences, WT ERK2 Y2H screen (WT ERK2 [2]): 5.02

SGMRARRGLLRLPR [B4GALT5, D-site 14-mer in ELK1 Y2H prey]
Z-score (ES) of hit sequences, WT ERK2 Y2H screen (WT ERK2 [2]): 5.95

SKGKKRNPGLKIPK [MAP2K6, D-site 14-mer in ELK1 Y2H prey]
Z-score (ES) of hit sequences, WT ERK2 Y2H screen (WT ERK2 [2]): 8.58

SLARAKRPSVSFAE [SCARF1, D-site 14-mer in ELK1 Y2H prey]
Z-score (ES) of hit sequences, WT ERK2 Y2H screen (WT ERK2 [2]): 5.09

SLKKKIQPKLSLTL [JAZF1, D-site 14-mer in ELK1 Y2H prey]
Z-score (ES) of hit sequences, WT ERK2 Y2H screen (WT ERK2 [2]): 5.24

SPKWKNFKGLKLQW [MLXIP, D-site 14-mer in ELK1 Y2H prey]
Z-score (ES) of hit sequences, WT ERK2 Y2H screen (WT ERK2 [2]): 8.72

SRKQRQPARLQLPA [ZBTB45, D-site 14-mer in ELK1 Y2H prey]
Z-score (ES) of hit sequences, WT ERK2 Y2H screen (WT ERK2 [2]): 3.70

TKMQKKVLSLRLPC [RIN2, D-site 14-mer in ELK1 Y2H prey]
Z-score (ES) of hit sequences, WT ERK2 Y2H screen (WT ERK2 [2]): 7.27

TRQKHAKKHLGFFR [UTP23, D-site 14-mer in ELK1 Y2H prey]
Z-score (ES) of hit sequences, WT ERK2 Y2H screen (WT ERK2 [2]): 3.13

TYRPKRPTTLNLFP [MAPK8IP1, D-site 14-mer in ELK1 Y2H prey]
Z-score (ES) of hit sequences, WT ERK2 Y2H screen (WT ERK2 [2]): 3.22

VVALRKKQQLAIGP [AGAP3, D-site 14-mer in ELK1 Y2H prey]
Z-score (ES) of hit sequences, WT ERK2 Y2H screen (WT ERK2 [2]): 6.33

YKMKFFTKCVAFSK [LRP2BP, D-site 14-mer in ELK1 Y2H prey]
Z-score (ES) of hit sequences, WT ERK2 Y2H screen (WT ERK2 [2]): 3.15
